The target of one assay is HLA-A*24:02 molecule (Homo sapiens, UniProt P04439, D101N/D140Y/D185E/E176V/E190D/F33S/G103R/G107R/I119L/I121M/I306V/K335N/L105A/L180Q/L300P/N151K/N90K/Q86E/Q94H/R106L/R138H/R89G/T104I/T345S/V100E/W191G/Y123F). Description: Binding experiment of peptide to HLA-A*24:02 molecule (C1R-A24 cells, antibody 17A12, FACScan). The note with it: for pKd: C1R-A24 cells, on ice 4 hours, negative figures given (log of Kd value). The protocol:
The binding capacity of each peptide to the HLA-A*24:02 molecule as the product of HLA-A*24:02 gene was measured using C1R-A24 cells expressing the HLA-A*24:02 molecule (the cells prepared by Prof. Masafumi Takeguchi, Kumamoto University were gifted by Assoc. Prof. Masaki Yasukawa, Ehime University with permission).
First, C1R-A24 cells were exposed to acidic conditions of pH 3.3 for 30 seconds to dissociate and remove endogenous peptides which were originally bound to the HLA-A*24:02 molecule and a light chain, […], which was commonly associated with HLA class I molecules. After neutralization, purified β2m was added to the C1R-A24 cells, which was then added to peptide dilution series. The mixtures were each then incubated on ice for 4 hours. The 3-molecule assembly (MHC-pep) consisting of the HLA-A*24:02 molecule, the peptide, and β2 m which had been reasociated during the incubation was stained with a fluorescent labeled monoclonal antibody, 17A12, recognizing the assembly.
Subsequently, the number of MHC-pep's per C1R-A24 cell (which is proportional to the fluorescent intensity of the above fluorescent antibody) was quantitatively measured using a fluorescent cell analyzer, FACScan (Becton, Dickinson and Company). The binding dissociation constant, Kd value, between the HLA-A*24:02 molecule and the peptide was calculated from the average fluorescent intensity per cell using a method as published in a paper (Udaka et al., Immunogenetics, 51, 816-828, 2000) by the present inventor.

The target in the next assay is HLA-A*02:01 molecule (Homo sapiens, UniProt P04439, D140Y/D185E/D98H/E176V/E277Q/G131W/G231S/I119V/I121R/I166T/I218V/L300P/L318F/N151K/N90K/P208A/P217A/Q86G/Q94H/R138H/R169H/T345S). Description: Binding experiment of peptide to HLA-A*02:01 molecule (T2 cells, antibody BB7.2, flow cytometer). The note with it: for pKd: T2 cells, 37° C. 4 hours, negative figures given (log of Kd value). The protocol: The binding capacity of each peptide to the HLA-A*02:01 molecule as the product of HLA-A*02:01 gene was measured using a cell line, T2, (purchased from ATCC) expressing the HLA-A*02:01 molecule.
T2 cells and purified β2m were added to stepwise dilution series of a peptide whose binding capacity was to be measured, which was then incubated at 37° C. for 4 hours.
(§1) Thereafter, the amount of fluorescence per cell was measured using a flow cytometer, and the dissociation constant, Kd value, was calculated using a method as published in a paper by the present inventor (Udaka et al., Immunogenetics, 51, 816-828, 2000).
(In general: In flow cytometry, cells or beads pass a laser one at a time.)

A further assay has as its target T1, HLA-A*02:06 molecule (Homo sapiens, UniProt P04439, D140Y/D185E/D98H/E176V/E277Q/F33Y/G131W/G231S/I119V/I121R/I166T/I218V/L300P/L318F/N151K/N90K/P208A/P217A/Q86G/Q94H/R138H/R169H/T345S).
T1 construct: expressed in transfected cells; host or cells: RA2.6 cells (RMAS mouse TAP-deficient line carrying HLA-A*02:06 cDNA; prepared at Kochi University)
The assay can be described thus: Binding experiment of peptide to HLA-A*02:06 molecule (RA2.6 cells, antibody BB7.2, flow cytometer). Conditions: for pKd: RA2.6 cells, 26° C. 60 minutes then 35° C. 4 hours, negative figures given (log of Kd value). On the procedure:
The binding capacity of each peptide to the HLA-A*02:06 molecule as the product of HLA-A*02:06 gene was measured using RA2.6 cells (a cell line newly prepared at Kochi University) in which cDNA of the HLA-A*02:06 gene was introduced into RMAS as a mouse TAP (transporter associated with antigen processing)-deficient cell line.
First, the RA2.6 cells were cultured overnight at 26° C. to accumulate the HLA-A*02:06 molecules unbound to the peptide on the cell surface. Any of peptide dilution series was added thereto for binding at 26° C. for 60 minutes.
Subsequently, the mixture was cultured at 35° C. for 4 hours, resulting in the denaturation of the empty HLA-A*02:06 molecule unbound to the peptide and the loss of its steric structure. A fluorescent labeled monoclonal antibody, BB7.2, specifically recognizing a peptide-bound HLA-A*02:06 molecule, was added thereto, which was then incubated on ice for 20 minutes to stain the cells.
as §1

A further assay concerns CD8T cells. Description: Immunity induction test of peptide (peptide-stimulated dendritic cells cocultured with CD8T cells, IFN-γ ELISPOT / ELISA). The format is cell-based, human. The protocol: (1) Preparation of Peptide-stimulated Dendritic Cell
Of peripheral blood monocytes obtained by pheresis from the patient treated with HSP70 dendritic cell therapy, a cell fraction adhering to the culture flask was cultured in AIM-CM medium (trade name “Gibco” from Thermo Fisher Scientific Co., Ltd.) at 37° C. for 10 days. During culture, 15 μl of IL-4 and 30 μl of granulocyte-monocyte colony-stimulating factor (GM-CSF) were added to the medium at day 0 and day 3, and 15 μl of IL-4, 30 μl of GM-CSF, and 75 μl of tumor necrosis factor (TNF)-α were added at day 5.
The dendritic cells induced were newly recovered into AIM-CM medium, and the peptides of the present invention (SEQ ID NOS: 1 to 11) were each added to 20 μg/ml. […]
The dendritic cells were recovered, washed 3 times or more with a sufficient amount of AIM-CM medium, and counted. […]
Using CD8 Negative Selection Kit (from Miltenyi Biotec), CD8T cells were separated from the medium and counted. […]
A culture supernatant at day 7 after coculture of T cells with dendritic cells pulsed with each of the above peptides was diluted to the 4 levels of ×1, ×5, ×25, and ×125 to identify the dilution level falling within the limit of measurement using Human IFN-γ ELISA MAX Deluxe Set (from BioLegend Inc.). Thereafter, each sample was measured 3 times at the identified dilution level. […]
In general terms: An ELISA detects its analyte on a solid surface through an enzyme-linked reagent.

pKd: −log10 of the molar value. Ends that are not written are not given here.

What is called pKd is the Kd on a negative log10 scale, so that one unit is a factor of ten. As to ALNLGIEVI [SEQ ID NO: 7, ALNLGIEVI], on HLA-A*24:02 molecule, the “binding to HLA-A*24:02 molecule (in words)” value is recorded as “strongly binds” and the pKd is 3.96. In addition, at HLA-A*02:01 molecule, the “binding to HLA-A*02:01 molecule (in words)” value is “strongly binds” and the pKd was 5.92. Besides, on HLA-A*02:06 molecule, the “binding to HLA-A*02:06 molecule (in words)” value was “strongly binds” and the negative logarithm of the Kd (pKd) is 4.16. For the same sequence, the “immunogenicity (in words)” value with CD8T cells is “high immunogenicity”.

As for ARLNMEQLL [SEQ ID NO: 11, ARLNMEQLL], the negative logarithm of the Kd (pKd) was 5.20 on HLA-A*24:02 molecule, 3.84 on HLA-A*02:01 molecule and 2.76 on HLA-A*02:06 molecule.

GMIKVKNQL [SEQ ID NO: 10, GMIKVKNQL]: the pKd on HLA-A*24:02 molecule was 6.90; on HLA-A*02:01 molecule it was 4.76; at HLA-A*02:06 molecule, 3.36.

For the sequence GYICSHSPV [SEQ ID NO: 6, GYICSHSPV], the pKd on HLA-A*24:02 molecule was 6.55; at HLA-A*02:01 molecule, under 3.00; on HLA-A*02:06 molecule, under 3.00.

Take KLTTTIGKL [SEQ ID NO: 9, KLTTTIGKL]: the pKd is 5.21 on HLA-A*24:02 molecule, 4.97 at HLA-A*02:01 molecule and 5.03 on HLA-A*02:06 molecule.

In the case of LFDSLFPVI [SEQ ID NO: 2, LFDSLFPVI], the pKd on HLA-A*24:02 molecule was 7.43; on HLA-A*02:01 molecule it was 5.07; at HLA-A*02:06 molecule, under 3.00.

Take LLQSASMEL [SEQ ID NO: 8, LLQSASMEL]: the pKd was 5.49 on HLA-A*24:02 molecule, 6.14 at HLA-A*02:01 molecule and 5.88 on HLA-A*02:06 molecule.

As for MVNELFDSL [SEQ ID NO: 1, MVNELFDSL], the negative logarithm of the Kd (pKd) at HLA-A*24:02 molecule is 4.70; on HLA-A*02:01 molecule it was 5.31; on HLA-A*02:06 molecule it was 6.14.

Regarding SALDINECL [SEQ ID NO: 3, SALDINECL], the pKd at HLA-A*24:02 molecule was under 3.00; on HLA-A*02:01 molecule it was under 3.00; on HLA-A*02:06 molecule, 6.32.

Turning to SLQVTRIFL [SEQ ID NO: 4, SLQVTRIFL], the pKd at HLA-A*24:02 molecule was 5.34; at HLA-A*02:01 molecule, 6.21; at HLA-A*02:06 molecule it was 5.21.

Regarding SLTPQAFEF [SEQ ID NO: 5, SLTPQAFEF], the pKd on HLA-A*24:02 molecule was 7.11; on HLA-A*02:01 molecule it was 4.93; at HLA-A*02:06 molecule, 4.52.

These data come from US10526388B2, “Peptide derived from GPC3, pharmaceutical composition for treatment or prevention of cancer using the same, immunity inducer, and method for producing antigen-presenting cells” (CYTLIMIC INC., priority 2015, dated 2020).
